Assay results taken from PMC3679734 (BMC Research Notes, 2013).

What was measured:
[1] = target: T1, human DAT (Homo sapiens, UniProt Q01959); experiment: Inhibition of DA uptake; type: cell-based
T1 construct: expressed in transfected cells; host or cells: HEK-293 cells (Invitrogen, Zug, Switzerland)
Description: The potencies of the drugs to inhibit the DAT were evaluated as previously described in HEK-293 cells (Invitrogen, Zug, Switzerland) stably transfected with the human DAT [8].

[2] = target: T1, human DAT; experiment: Inhibition of methamphetamine-induced DA release; type: cell-based; settings: HEK-293 cells expressing human DAT preloaded with 3H-DA; release induced with 10 μM methamphetamine, 15 min; means of 3–4 independent experiments and 95% CI
Description: We performed DA transporter mediated release experiments as previously published with slight modification. In brief, HEK-293 cells expressing the human DAT as stated above were cultured in 48 well-plates. Cells were filled with ^3H-DA, washed, and incubated with 250 μL buffer containing the drug alone or in combinations. […] DA release was stopped after 15 min by removing the release buffer from the cells. To quantify the DA release we determined the radioactivity in the cells after another wash step. The residual radioactivity in the cells after methamphetamine alone defined 100% DA release.

[3] = target: T1, human DAT; design: method as in PMID 22897747; settings: read-out: DA release potency (EC50); HEK-293 cells expressing human DAT; 95% CI 0.9 μM-[…]; as shown previously ref 25; cited from earlier work

T1 sequence (Q01959 whole entry): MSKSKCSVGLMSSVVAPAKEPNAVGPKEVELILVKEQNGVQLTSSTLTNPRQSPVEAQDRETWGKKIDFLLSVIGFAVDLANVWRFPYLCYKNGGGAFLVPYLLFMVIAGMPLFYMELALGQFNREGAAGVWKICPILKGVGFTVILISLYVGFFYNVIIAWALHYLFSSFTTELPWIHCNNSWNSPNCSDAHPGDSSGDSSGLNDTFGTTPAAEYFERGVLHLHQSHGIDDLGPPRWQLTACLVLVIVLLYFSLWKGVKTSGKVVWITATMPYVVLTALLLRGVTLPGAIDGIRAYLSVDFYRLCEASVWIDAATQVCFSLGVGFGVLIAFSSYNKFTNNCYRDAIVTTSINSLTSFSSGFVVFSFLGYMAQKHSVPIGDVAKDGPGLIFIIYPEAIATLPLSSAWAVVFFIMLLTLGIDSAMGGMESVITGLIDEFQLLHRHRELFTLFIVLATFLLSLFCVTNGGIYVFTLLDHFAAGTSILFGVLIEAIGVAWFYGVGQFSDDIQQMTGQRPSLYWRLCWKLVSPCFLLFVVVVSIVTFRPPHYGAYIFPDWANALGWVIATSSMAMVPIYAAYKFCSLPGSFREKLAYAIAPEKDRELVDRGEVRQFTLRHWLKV

SMILES | IC50 ([1]; HEK-293 cells stably transfected with the human DAT, means of 3–4 independent experiments and 95% CI, read-out: DA uptake IC50 (95% CI)) [nM] | IC50 [2] [nM] | IC50 [1] [nM] | EC50 [3] [nM]
CCCC(C(=O)c1ccc2c(c1)OCO2)N1CCCC1 (stereo not shown) [MDPV, 3,4-methylenedioxypyrovalerone] | 31 | 280 | – | –
CN[C@@H](C)Cc1ccccc1 [Methamphetamine, d-methamphetamine] | – | – | 1050 | 1560
